PubChem BioAssay AID330 (DTP/NCI, 2004)
“And” between values parts separate entries of the source, which are not always exact repeats. Equal values may be shown once. Toxic doses and inconclusive results are not listed. How the source made its calls: active means survival T/C of 150% or more; inactive means T/C below 125% in these data.

Tested on: P388 leukemia ip, CD2F1 mice, survival T/C
Experiment: NCI In Vivo Anticancer Drug Screen. Data for tumor model P388 Leukemia (intraperitoneal) in CD2F1 (CDF1) mice
Details: endpoint: median survival time, higher = longer survival
In short: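 Mice carrying the transplanted tumor received test compound or vehicle. Survival was recorded in each group, and the value is the treated-group measurement divided by that of the vehicle-treated control group.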

[1] = dose: 100.0 mg/kg/injection, schedule: Q04DX002 (ip), vehicle: saline with Tween-80
[2] = dose: 50.0 mg/kg/injection, schedule: Q01DX005 (ip), vehicle: saline with Tween-80
[3] = dose: 100.0 mg/kg/injection, schedule: Q01DX005 (ip), vehicle: saline with Tween-80
[4] = dose: 50.0 mg/kg/injection, schedule: Q01DX009 (ip), vehicle: saline
[5] = dose: 100.0 mg/kg/injection, schedule: Q01DX009 (ip), vehicle: saline
[6] = dose: 12.5 mg/kg/injection, schedule: Q01DX009 (ip), vehicle: saline with Tween-80
[7] = dose: 50.0 mg/kg/injection, schedule: Q01DX009 (ip), vehicle: saline with Tween-80
[8] = dose: 50.0 mg/kg/injection, schedule: Q01DX005 (ip), vehicle: Klucel (hydroxypropylcellulose) (HPC)
[9] = dose: 100.0 mg/kg/injection, schedule: Q01DX005 (ip), vehicle: Klucel (hydroxypropylcellulose) (HPC)
[10] = dose: 200.0 mg/kg/injection, schedule: Q01DX005 (ip), vehicle: Klucel (hydroxypropylcellulose) (HPC)
[11] = dose: 200.0 mg/kg/injection, schedule: Q01DX005 (ip), vehicle: saline with Tween-80
[12] = dose: 6.25 mg/kg/injection, schedule: Q01DX005 (ip), vehicle: saline with Tween-80
[13] = dose: 1.56 mg/kg/injection, schedule: Q01DX009 (ip), vehicle: saline

Measured: T/C

COc1ccc2c(c1)N(C(=O)CN1CCN(C)CC1)c1ccccc1S2
inactive: dose: 25.0 mg/kg/injection, schedule: Q04DX002 (ip), vehicle: saline 99 % of control | dose: 50.0 mg/kg/injection, schedule: Q04DX002 (ip), vehicle: saline 102 % of control | [1] 100 % of control | dose: 100.0 mg/kg/injection, schedule: Q04DX002 (ip), vehicle: saline 99 % of control

COc1ccc(C2c3cc4c(cc3OC3(N5CCCC5)CCCC23)OCO4)c(OC)c1 (configuration not stated)
inactive: dose: 60.0 mg/kg/injection, schedule: Q01DX005 (ip), vehicle: Klucel (hydroxypropylcellulose) (HPC) 99 % of control | dose: 120.0 mg/kg/injection, schedule: Q01DX005 (ip), vehicle: Klucel (hydroxypropylcellulose) (HPC) 95 % of control | dose: 240.0 mg/kg/injection, schedule: Q01DX005 (ip), vehicle: Klucel (hydroxypropylcellulose) (HPC) 96 % of control

CC1OC=CC(OC2OC(CO)C(O)C(O)C2O)C1O (configuration not stated)
inactive: dose: 21.25 mg/kg/injection, schedule: Q01DX005 (ip), vehicle: saline 109 % of control | dose: 42.5 mg/kg/injection, schedule: Q01DX005 (ip), vehicle: saline 116 % of control | dose: 85.0 mg/kg/injection, schedule: Q01DX005 (ip), vehicle: saline 108 % of control | dose: 170.0 mg/kg/injection, schedule: Q01DX005 (ip), vehicle: saline 101 % of control

COc1cccc(C(=O)N/N=C(\C#N)c2cccc(OC)c2)c1
inactive: [2] 97 % of control | [3] 94 % of control

CC1CN(C(=O)OCC23COC4(C)CCC(C)(OC2)N34)CC(C)O1 (configuration not stated)
inactive: dose: 50.0 mg/kg/injection, schedule: Q01DX005 (ip), vehicle: saline 100 % of control | dose: 100.0 mg/kg/injection, schedule: Q01DX005 (ip), vehicle: saline 100 % of control | dose: 200.0 mg/kg/injection, schedule: Q01DX005 (ip), vehicle: saline 100 % of control

C(/CSC/C=N/Nc1ccccc1)=N\Nc1ccccc1
inactive: [4] 103 % of control | [5] 103 % of control

ClCc1cccc2c(CCl)cccc12
inactive: [6] 113 % of control | dose: 25.0 mg/kg/injection, schedule: Q01DX009 (ip), vehicle: saline with Tween-80 110 % of control and 124 % of control | [7] 121 % of control

NNC(=O)CS(=O)(=O)NCc1ccccc1
inactive: [8] 100 % of control | [9] 99 % of control | [10] 97 % of control

Cc1cc(O)c(CO)cc1C
inactive: [1] 104 % of control | dose: 200.0 mg/kg/injection, schedule: Q04DX002 (ip), vehicle: saline with Tween-80 110 % of control | dose: 400.0 mg/kg/injection, schedule: Q04DX002 (ip), vehicle: saline with Tween-80 107 % of control

C=C1CC2(CCOc3ccccc32)OC1=O (configuration not stated)
inactive: dose: 25.0 mg/kg/injection, schedule: Q04DX003 (ip), vehicle: saline with Tween-80 105 % of control | dose: 50.0 mg/kg/injection, schedule: Q04DX003 (ip), vehicle: saline with Tween-80 115 % of control | dose: 100.0 mg/kg/injection, schedule: Q04DX003 (ip), vehicle: saline with Tween-80 108 % of control and 117 % of control | dose: 200.0 mg/kg/injection, schedule: Q04DX003 (ip), vehicle: saline with Tween-80 90 % of control

COc1nc2nc(Cl)cc(C)c2c2ccccc12 (tested in a mixture with another compound)
inactive: [2] 104 % of control | [3] 104 % of control | [11] 92 % of control

N#C/C(=N\NC(=O)c1cccc(C(=O)N/N=C(\C#N)c2ccccc2Cl)n1)c1ccccc1Cl
inactive: dose: 1.5 mg/kg/injection, schedule: Q01DX005 (ip), vehicle: saline with Tween-80 92 % of control | dose: 3.0 mg/kg/injection, schedule: Q01DX005 (ip), vehicle: saline with Tween-80 94 % of control | dose: 6.0 mg/kg/injection, schedule: Q01DX005 (ip), vehicle: saline with Tween-80 94 % of control | [12] 91 % of control | [11] 100 % of control

Cc1ccc(/C=C/C(=O)C(CN(C)C)CN(C)C)cc1C
inactive: [12] 100 % of control | dose: 12.5 mg/kg/injection, schedule: Q01DX005 (ip), vehicle: saline with Tween-80 109 % of control

COc1cc(CC(=O)NCCc2ccsc2)c(CO)cc1OCc1ccccc1
inactive: dose: 100.0 mg/kg/injection, schedule: Q01DX001 (ip), vehicle: Klucel (hydroxypropylcellulose) (HPC) 99 % of control | dose: 200.0 mg/kg/injection, schedule: Q01DX001 (ip), vehicle: Klucel (hydroxypropylcellulose) (HPC) 101 % of control | dose: 400.0 mg/kg/injection, schedule: Q01DX001 (ip), vehicle: Klucel (hydroxypropylcellulose) (HPC) 101 % of control

CCN1C=C/C(=C\C=C/c2cc[n+](CC)c3ccccc23)c2ccccc21
inactive: dose: 0.15 mg/kg/injection, schedule: Q04DX003 (ip), vehicle: saline 118 % of control | dose: 0.22 mg/kg/injection, schedule: Q04DX003 (ip), vehicle: saline 118 % of control | dose: 0.33 mg/kg/injection, schedule: Q04DX003 (ip), vehicle: saline 122 % of control

N#Cc1c(=O)[nH]c(=O)n2c1[nH]c1ccccc12
inactive: dose: 15.0 mg/kg/injection, schedule: Q01DX005 (ip), vehicle: saline with Tween-80 102 % of control | dose: 30.0 mg/kg/injection, schedule: Q01DX005 (ip), vehicle: saline with Tween-80 104 % of control | dose: 60.0 mg/kg/injection, schedule: Q01DX005 (ip), vehicle: saline with Tween-80 105 % of control and 88 % of control

CCOC(=O)/C=C(\Cl)C(=O)OCC
inactive: dose: 1.56 mg/kg/injection, schedule: Q01DX009 (ip), vehicle: saline with Tween-80 95 % of control | [13] 101 % of control | dose: 3.13 mg/kg/injection, schedule: Q01DX009 (ip), vehicle: saline with Tween-80 104 % of control and 110 % of control | dose: 3.13 mg/kg/injection, schedule: Q01DX009 (ip), vehicle: saline 103 % of control | dose: 6.25 mg/kg/injection, schedule: Q01DX009 (ip), vehicle: saline with Tween-80 111 % of control and 123 % of control | dose: 6.25 mg/kg/injection, schedule: Q01DX009 (ip), vehicle: saline 112 % of control | [6] 111 % of control | dose: 12.5 mg/kg/injection, schedule: Q01DX009 (ip), vehicle: saline 118 % of control

CCOc1ccc(Nc2cc([N+](=O)[O-])ccc2C(=O)O)cc1
inactive: [7] 91 % of control | dose: 200.0 mg/kg/injection, schedule: Q01DX009 (ip), vehicle: saline with Tween-80 108 % of control

Cc1ccc2c(c1)C1(C)OC(C=CC1S(=O)c1ccccc1)O2 (configuration not stated)
inactive: [8] 102 % of control | [9] 101 % of control | [10] 113 % of control

O=[N+]([O-])c1ccccc1/C(=N\O)c1cccs1
inactive: dose: 100.0 mg/kg/injection, schedule: Q04DX002 (ip), vehicle: Klucel (hydroxypropylcellulose) (HPC) 107 % of control | dose: 200.0 mg/kg/injection, schedule: Q04DX002 (ip), vehicle: Klucel (hydroxypropylcellulose) (HPC) 100 % of control

CC1=CC(OC2CCCCO2)CC(C)(C)C1 (configuration not stated)
inactive: [4] 100 % of control | [5] 99 % of control | dose: 200.0 mg/kg/injection, schedule: Q01DX009 (ip), vehicle: saline 101 % of control

CC[n+]1c(/C=C/c2ccc(N(C)C)cc2)ccc2ccccc21
inactive: dose: 0.19 mg/kg/injection, schedule: Q01DX009 (ip), vehicle: saline 100 % of control | dose: 0.39 mg/kg/injection, schedule: Q01DX009 (ip), vehicle: saline 86 % of control | dose: 0.78 mg/kg/injection, schedule: Q01DX009 (ip), vehicle: saline 114 % of control | [13] 96 % of control
